Measured values taken from article PMC8637766, “A mixed chirality α-helix in a stapled bicyclic and a linear antimicrobial peptide revealed by X-ray crystallography” (RSC Chemical Biology, 2021).
Values after ≈ are worked out from the molar mass of the structure shown. Square brackets hold non-standard residues; d marks the D form. Ends that are not written are not given here. Peptide text beside a SMILES is read from it. * marks the point of attachment. Benzoyl(4-Me) = Cc1ccc(C(=O)*)cc1

Key:
[1] = Lipid vesicle leakage assay, 5(6)-carboxyfluorescein release; settings: for EYPC vesicle leakage / EYPG vesicle leakage: 10 μg mL^−1 compound, leakage at 250 s, 10 mM TRIS, 107 mM NaCl, pH 7.4, 25 °C, carboxyfluorescein fluorescence, Triton X-100 = full release
Experimental: 4 Lipid Vesicle Leakage assays
5(6)-carboxyfluorescein (CF) was purchased from Sigma. Egg Yolk Phosphatidylcholine (EYPC),
Egg Yolk Phosphatidylglycerol (EYPG) and a Mini-Extruder were purchased from Avanti Polar
Lipids. Egg PC or Egg PG thin lipid layers were prepared by evaporating a solution of 100 mg EYPC
or EYPG in 4 mL MeOH/CHCl3 (1:1) on a rotary evaporator at room temperature and then dried in
vacuo overnight. The resulting film was then hydrated with 4 mL CF buffer (50 mM CF, 10 mM
TRIS, 107 mM NaCl, pH 7.4) for 30 min, subjected to freeze-thaw cycles (7×) and extrusion (15×)
through a polycarbonate membrane (pore size 100 nm). Extra vesicular components were removed
by gel filtration (Sephadex G-50) with 10 mM TRIS, 107 mM NaCl, pH 7.4 buffer. Final conditions:
~ 2.5 mM PC or PG; inside: 50 mM CF, 10 mM TRIS, 10 mM NaCl, pH 7.4 buffer; outside: 10 mM
TRIS, 107 mM NaCl, pH 7.4. PC or PG stock solutions (37.5 µL) were diluted to 3000 µL with a
buffer (10 mM TRIS, 107 mM NaCl, pH 7.4) in a thermostated fluorescence cuvette (25 °C) and
gently stirred (final lipid concentration ~31 µM). CF efflux was monitored at λem 517 nm (λex 492
nm) as a function of time after addition of the desired volume of peptide (1 or 20 mg/mL stock in mQ
water) at t = 45 s. The following final concentrations of peptide were monitored: 5, 10, 15, 20, 25 and
200 µg/mL. Finally, 30 µL of 1.2% Triton X -100 was added to the cuvette (0.012% final
concentration) at t = 285 s to reach the maximum intensity. Fluorescence intensities were then
Figure S1: Vesicle leakage experiments using 5(6)-carboxyfluorescein induced by peptides. EYPG and EYPC vesicles
were suspended in buffer (10 mM TRIS, 107 mM NaCl, pH 7.4) and the indicated concentration of the compound was
added after 45 sec. After 285 seconds 30 μL Triton X-100 1.2% was added for full release of fluorescein. […]

[2] = test system: P. aeruginosa PAO1; format: cell-based, Pseudomonas aeruginosa
Experimental: (§1) Bicyclic and linear peptides cytotoxicity was assayed against P. aeruginosa PAO1, P. aeruginosa ZEM-1A, P. aeruginosa ZEM9A, K. pneumoniae Oxa-48, E. coli W3110, A. baumannii BAL225, S. aureus Newman, S. aureus COL (clinical isolate of MRSA) , B. Subtilis BR151.
(§2) To determine the Minimal Inhibitory Concentration (MIC), Broth Microdilution method was used . 2 A colony of bacteria from glycerol stock was grown in LB medium overnight at 37 °C and 180 rpm shaking. The compounds were prepared as stock solutions of 8 mg/mL in sterilized milliQ deionized water, added to the first well of 96 -well sterile, polypropylene round bottom microtiter plates (TPP, untreated) and diluted serially by ½. The concentration of the bacteria was quantified by measuring absorbance at 600 nm and diluted to an OD 600 of 0.022 in MH medium. The sample solutions (150 µL) were mixed with 4 µL diluted bacterial suspension with a final inoculation of about 5×10^5 CFU.
(§3) For each test, two columns of the plate were kept for sterility control (MH medium only), growth control (MH medium with bacterial inoculum, no compound). The positive control, Polymyxin B (starting with a concentration of 64 µg/mL) in MH medium with bacterial inoculums, was introduced in the two first lines of the plate. The plates were incubated at 37 °C for ~18 hours under static conditions. 15 μL of 3-(4,5-dimethylthiazol-2-yl)-2,5-diphenyltetrazolium bromide (MTT)3 (1 mg/mL in sterilized milliQ deionized water) were added to each well and the plates were incubated for 20-30 minutes at room temperature. The minimal inhibitory concentration (MIC) was defined as the lowest concentration of the dendrimer that inhibits the visible growth of the tested bacteria (yellow) with the unaided eye.

[3] = test system: K. pneumoniae Oxa-48; format: cell-based
Experimental: as §1, §2, §3

[4] = test system: E. coli W3110; format: cell-based
Experimental: as §1, §2, §3

[5] = test system: S. aureus COL (clinical isolate of MRSA); format: cell-based
Experimental: as §1, §2, §3

[6] = test system: S. aureus Newman; format: cell-based
Experimental: as §1, §2, §3

[7] = test system: A. baumannii BAL225; format: cell-based
Experimental: as §1, §2, §3

[8] = test system: P. aeruginosa ZEM9A; format: cell-based, Pseudomonas aeruginosa
Experimental: as §1, §2, §3

[9] = test system: P. aeruginosa ZEM-1A; format: cell-based, Pseudomonas aeruginosa
Experimental: as §1, §2, §3

Compound: Cc1c2cc3cc1CSC[C@H](C(=O)N[C@@H](CC(C)C)C(=O)N[C@H](CC(C)C)C(N)=O)NC(=O)[C@H](CCCCN)NC(=O)[C@@H](CC(C)C)NC(=O)[C@H](CSC2)NC(=O)[C@@H](CCCCN)NC(=O)[C@H](CC(C)C)NC(=O)[C@@H](CC(C)C)NC(=O)[C@H](CCCCN)NC(=O)[C@@H](CCCCN)NC3=O [bp67] (HELM PEPTIDE1{[dK].K.[dL].L.[dK].C.[dL].K.[dC].L.[dL].[am]}|CHEM1{[Cc1c(C[*:2])cc(C(=O)[*:1])cc1C[*:3]]}$PEPTIDE1,CHEM1,1:R1-1:R1|PEPTIDE1,CHEM1,6:R3-1:R2|PEPTIDE1,CHEM1,9:R3-1:R3$$$V2.0)
- EYPC vesicle leakage [1]: 6%
- EYPG vesicle leakage [1]: 48%
- Leakage activity on EYPC vesicles, in words ([1]; zwitterionic EYPC vesicles mimicking eukaryotic membranes): very low leakage activity
- MIC PAO1 [2]: 32 µg/mL (≈ 22.2 µM)

Compound: Cc1c2cc3cc1CSC[C@@H](NC(=O)[C@H](CCCCN)NC(=O)[C@H](CC(C)C)NC(=O)[C@H](CC(C)C)NC(=O)[C@H](CCCCN)NC(=O)[C@H](CCCCN)NC3=O)C(=O)N[C@@H](CC(C)C)C(=O)N[C@@H](CCCCN)C(=O)N[C@@H](C(=O)N[C@@H](CC(C)C)C(=O)N[C@@H](CC(C)C)C(N)=O)CSC2 [bp68] (HELM PEPTIDE1{K.K.L.L.K.[dC].L.K.[dC].L.L.[am]}|CHEM1{[Cc1c(C[*:2])cc(C(=O)[*:1])cc1C[*:3]]}$PEPTIDE1,CHEM1,1:R1-1:R1|PEPTIDE1,CHEM1,6:R3-1:R2|PEPTIDE1,CHEM1,9:R3-1:R3$$$V2.0)
- EYPC vesicle leakage [1]: 18%
- EYPG vesicle leakage [1]: 44%
- MIC PAO1 [2]: 16 µg/mL (≈ 11.1 µM)

Compound: Cc1c2cc3cc1CSC[C@H](NC(=O)[C@@H](CCCCN)NC(=O)[C@H](CC(C)C)NC(=O)[C@H](CC(C)C)NC(=O)[C@@H](CCCCN)NC(=O)[C@@H](CCCCN)NC3=O)C(=O)N[C@@H](CC(C)C)C(=O)N[C@H](CCCCN)C(=O)N[C@H](C(=O)N[C@@H](CC(C)C)C(=O)N[C@@H](CC(C)C)C(N)=O)CSC2 [bp69] (HELM PEPTIDE1{[dK].[dK].L.L.[dK].C.L.[dK].C.L.L.[am]}|CHEM1{[Cc1c(C[*:2])cc(C(=O)[*:1])cc1C[*:3]]}$PEPTIDE1,CHEM1,1:R1-1:R1|PEPTIDE1,CHEM1,6:R3-1:R2|PEPTIDE1,CHEM1,9:R3-1:R3$$$V2.0)
- EYPC vesicle leakage [1]: 57%
- EYPG vesicle leakage [1]: 48%
- MIC K. pneumoniae Oxa-48 [3]: 16 µg/mL (≈ 11.1 µM)
- MIC E. coli W3110 [4]: 8 µg/mL (≈ 5.54 µM)
- MIC S. aureus COL [5]: 4 µg/mL (≈ 2.77 µM)
- MIC S. aureus Newman [6]: 2 to 4 µg/mL
- MIC A. baumannii BAL225 [7]: 4 µg/mL (≈ 2.77 µM)
- MIC PAO1 [2]: 16 µg/mL (≈ 11.1 µM)
- MIC P. aeruginosa ZEM9A [8]: >32 µg/mL
- MIC P. aeruginosa ZEM-1A [9]: 4 to 8 µg/mL

Compound: CSC[C@H](NC(=O)[C@H](CCCCN)NC(=O)[C@H](CC(C)C)NC(=O)[C@H](CSC)NC(=O)[C@H](CCCCN)NC(=O)[C@H](CC(C)C)NC(=O)[C@H](CC(C)C)NC(=O)[C@H](CCCCN)NC(=O)[C@H](CCCCN)NC(=O)c1ccc(C)cc1)C(=O)N[C@@H](CC(C)C)C(=O)N[C@@H](CC(C)C)C(N)=O [ln65b] ({Benzoyl(4-Me)}-KKLLKC(Me)LKC(Me)LL-NH2)
- MIC K. pneumoniae Oxa-48 [3]: 8 µg/mL (≈ 5.52 µM)
- MIC E. coli W3110 [4]: 8 µg/mL (≈ 5.52 µM)
- MIC S. aureus COL [5]: 4 µg/mL (≈ 2.76 µM)
- MIC S. aureus Newman [6]: 4 µg/mL (≈ 2.76 µM)
- MIC A. baumannii BAL225 [7]: 4 µg/mL (≈ 2.76 µM)
- MIC PAO1 [2]: 4 to 8 µg/mL
- MIC P. aeruginosa ZEM9A [8]: 16 µg/mL (≈ 11 µM)
- MIC P. aeruginosa ZEM-1A [9]: 4 µg/mL (≈ 2.76 µM)

Compound: CC(C)C[C@H](NC(=O)[C@H](CC(C)C)NC(=O)[C@H](CC(C)C)NC(=O)[C@@H](CCCCN)NC(=O)[C@H](CC(C)C)NC(=O)[C@H](CC(C)C)NC(=O)[C@@H](CCCCN)NC(=O)[C@H](CC(C)C)NC(=O)[C@H](CC(C)C)NC(=O)[C@@H](CCCCN)NC(=O)[C@H](N)CCCCN)C(N)=O [ln69] (HELM PEPTIDE1{[dK].[dK].L.L.[dK].L.L.[dK].L.L.L.[am]}$$$$V2.0)
- MIC K. pneumoniae Oxa-48 [3]: 8 µg/mL (≈ 6.05 µM)
- MIC E. coli W3110 [4]: 4 µg/mL (≈ 3.03 µM)
- MIC S. aureus COL [5]: 16 µg/mL (≈ 12.1 µM)
- MIC S. aureus Newman [6]: 8 µg/mL (≈ 6.05 µM)
- MIC A. baumannii BAL225 [7]: 2 to 4 µg/mL
- MIC PAO1 [2]: 8 µg/mL (≈ 6.05 µM)
- MIC P. aeruginosa ZEM9A [8]: >32 µg/mL
- MIC P. aeruginosa ZEM-1A [9]: 8 µg/mL (≈ 6.05 µM)

Compound: CSC[C@H](NC(=O)[C@@H](CCCCN)NC(=O)[C@H](CC(C)C)NC(=O)[C@H](CSC)NC(=O)[C@@H](CCCCN)NC(=O)[C@H](CC(C)C)NC(=O)[C@H](CC(C)C)NC(=O)[C@@H](CCCCN)NC(=O)[C@@H](CCCCN)NC(=O)c1ccc(C)cc1)C(=O)N[C@@H](CC(C)C)C(=O)N[C@@H](CC(C)C)C(N)=O [ln69b] ({Benzoyl(4-Me)}-[dK][dK]LL[dK]C(Me)L[dK]C(Me)LL-NH2)
- MIC K. pneumoniae Oxa-48 [3]: >32 µg/mL
- MIC E. coli W3110 [4]: 8 µg/mL (≈ 5.52 µM)
- MIC S. aureus COL [5]: 32 µg/mL (≈ 22.1 µM)
- MIC S. aureus Newman [6]: 32 µg/mL (≈ 22.1 µM)
- MIC A. baumannii BAL225 [7]: 8 µg/mL (≈ 5.52 µM)
- MIC PAO1 [2]: 16 µg/mL (≈ 11 µM)
- MIC P. aeruginosa ZEM9A [8]: >32 µg/mL
- MIC P. aeruginosa ZEM-1A [9]: 8 µg/mL (≈ 5.52 µM)

Compound: KKLLKLLKLLL-NH2 [ln65]
- MIC K. pneumoniae Oxa-48 [3]: 4 µg/mL
- MIC E. coli W3110 [4]: 4 µg/mL
- MIC S. aureus COL [5]: 4 µg/mL
- MIC S. aureus Newman [6]: 2 to 4 µg/mL
- MIC A. baumannii BAL225 [7]: 2 to 4 µg/mL
- MIC PAO1 [2]: 2 to 4 µg/mL
- MIC P. aeruginosa ZEM9A [8]: 16 µg/mL
- MIC P. aeruginosa ZEM-1A [9]: 2 to 4 µg/mL
